Assay results taken from patent US20240166652A1, “MODULATORS OF THE INTEGRATED STRESS PATHWAY” (Calico Life Sciences LLC, priority 2017, published 2024).

Tested on: ATF4 luciferase reporter in HEK293T cells
Assay: ATF4-Luc assay (ATF4 luciferase reporter, tunicamycin-treated HEK293T cells)
Assay type: cell-based, human
Settings: Homo sapiens, HEK-293T; HEK293T cells carrying the ATF4 luciferase reporter, 1 μg/mL tunicamycin, 7 hours

SMILES: COCc1cccc(OCC(=O)NC23CCC(NC(=O)COc4ccc(Cl)c(F)c4)(CC2)[C@@H](O)C3)c1 [Compound 777, 2-(4-chloro-3-fluorophenoxy)-N-[(2S)-2-hydroxy-4-{2-[3-(methoxymethyl)phenoxy]acetamido}bicyclo[2.2.2]octan-1-yl]acetamide]
- EC50: 10 to 50 nM

SMILES: Cc1cc(OC(C)(C)C(=O)NC23CCC(NC(=O)COc4ccc(Cl)c(F)c4)(CC2)C[C@@H]3O)ccc1Cl [Compound 439, N-{(2S)-4-[2-(4-chloro-3-fluorophenoxy)acetamido]-2-hydroxybicyclo[2.2.2]octan-1-yl}-2-(4-chloro-3-methylphenoxy)-2-methylpropanamide]
- EC50: < 10 nM

SMILES: Cc1noc(C)c1-c1cc(OCC(=O)NC23CC(NC(=O)COc4ccc(Cl)c(F)c4)(C2)C3)ccc1Cl [Compound 261, 2-[4-chloro-3-(3,5-dimethyl-1,2-oxazol-4-yl)phenoxy]-N-{3-[2-(4-chloro-3-fluorophenoxy)acetamido]bicyclo[1.1.1]pentan-1-yl}acetamide]
- EC50: 10 to 50 nM

SMILES: O=C(COc1ccc(Cl)c(Cl)c1)NC12CC(NC(=O)OCc3cccc(Cl)c3)(C1)C2 [Compound 172, (3-chlorophenyl)methyl {3-[2-(3,4-dichlorophenoxy)acetamido]-bicyclo[1.1.1]pentan-1-yl}carbamate]
- EC50: 250 to 500 nM

SMILES: O=C(COc1cccnc1)NC12CC(NC(=O)COc3ccc(Cl)c(Cl)c3)(C1)C2 [Compound 405, 2-(3,4-dichlorophenoxy)-N-(3-{2-[(pyridin-3-yl)oxy]acetamido}bicyclo[1.1.1]pentan-1-yl)acetamide]
- EC50: 50 to 250 nM

SMILES: O=C(COc1ccc(Cl)c(F)c1)NC12CCC(NC(=O)COc3ccc(Cl)nn3)(CC1)[C@@H](O)C2 [Compound 518, 2-(4-chloro-3-fluorophenoxy)-N-[(3S)-4-{2-[(6-chloropyridazin-3-yl)oxy]acetamido}-3-hydroxybicyclo[2.2.2]octan-1-yl]acetamide]
- EC50: 10 to 50 nM

SMILES: O=C(COCCc1ccc(F)cc1)NC12CC(NC(=O)COc3ccc(Cl)c(Cl)c3)(C1)C2 [Compound 149, 2-(3,4-dichlorophenoxy)-N-(3-{2-[2-(4-fluorophenyl)ethoxy]acetamido}-bicyclo[1.1.1]pentan-1-yl)acetamide]
- EC50: 10 to 50 nM

SMILES: O=C(COc1ccc(C(F)F)cc1)NC12CC(NC(=O)COc3ccc(Cl)c(F)c3)(C1)C2 [Compound 388, 2-(4-chloro-3-fluorophenoxy)-N-(3-{2-[4-(difluoromethyl)phenoxy]acetamido}bicyclo[1.1.1]pentan-1-yl)acetamide]
- EC50: 10 to 50 nM

SMILES: O=C(COCc1ccc(Cl)cc1)NC12CC(NC(=O)COc3ccc(Cl)c(Cl)c3)(C1)C2 [Compound 156, 2-[(4-chlorophenyl)methoxy]-N-{3-[2-(3,4-dichlorophenoxy)acetamido]-bicyclo[1.1.1]pentan-1-yl}acetamide]
- EC50: 10 to 50 nM

SMILES: O=C(COc1ccc(Cl)c(F)c1)N[C@]12CC[C@](NC(=O)COc3ccc(Cl)c(F)c3)(C1)[C@@H](O)C2 (racemic) [Compound 585, rac-N,N′-[(1S,2S,4R)-2-hydroxybicyclo[2.2.1]heptane-1,4-diyl]bis[2-(4-chloro-3-fluorophenoxy)acetamide]]
- EC50: < 10 nM

SMILES: O=C(COc1ccc(F)c(Cl)c1)NC12CC(NC(=O)COc3ccc(F)c(Cl)c3)(C1)C2 [Compound 547, N,N′-(bicyclo[1.1.1]pentane-1,3-diyl)bis[2-(3-chloro-4-fluorophenoxy)acetamide]]
- EC50: < 10 nM

SMILES: O=C(COc1ccc(Cl)c(F)c1)NC12CC(NC(=O)OCCCc3cccc(Cl)c3)(C1)C2 [Compound 166, 3-(3-chlorophenyl)propyl {3-[2-(4-chloro-3-fluorophenoxy)acetamido]-bicyclo[1.1.1]pentan-1-yl}carbamate]
- EC50: 250 to 500 nM

SMILES: O=C(COc1ccc(Cl)c(F)c1)NC12CCC(NC(=O)COc3ccc(C(F)(F)F)nc3)(CC1)C(O)C2 (racemic) [Compound 301, 2-(4-chloro-3-fluorophenoxy)-N-[3-hydroxy-4-(2-{[6-(trifluoromethyl)pyridin-3-yl]oxy}acetamido)bicyclo[2.2.2]octan-1-yl]acetamide]
- EC50: < 10 nM

SMILES: O=C(COc1ccc(Cl)c(F)c1)NC12CC(NC(=O)COc3ccc(C(F)(F)F)cn3)(C1)C2 [Compound 214, 2-(4-chloro-3-fluorophenoxy)-N-[3-(2-{[5-(trifluoromethyl)pyridin-2-yl]oxy}acetamido)bicyclo[1.1.1]pentan-1-yl]acetamide]
- EC50: 50 to 250 nM

SMILES: O=C(COc1cc(F)c2cn[nH]c2c1)NC12CCC(NC(=O)COc3ccc(Cl)c(F)c3)(CC1)[C@@H](O)C2 [Compound 727, 2-(4-chloro-3-fluorophenoxy)-N-[(2S)-4-{2-[(4-fluoro-1H-indazol-6-yl)oxy]acetamido}-2-hydroxybicyclo[2.2.2]octan-1-yl]acetamide]
- EC50: < 10 nM

SMILES: O=C(COc1ccc(Cl)cc1)NC12C3C4C1C1C2C3C41NC(=O)COc1ccc(Cl)cc1 (centres unmarked) [Compound 103, N,N′-(pentacyclo[4.2.0.0^2,50^3,80^4,7]octane-1,4-diyl)bis[2-(4-chlorophenoxy)-acetamide]]
- EC50: 10 to 50 nM

SMILES: CN(CC(=O)NC12CC(NC(=O)COc3ccc(Cl)c(F)c3)(C1)C2)C(=O)c1ccc(Cl)cc1 [Compound 204, 4-chloro-N-[2-({3-[2-(4-chloro-3-fluorophenoxy)acetamido]-bicyclo[1.1.1]pentan-1-yl}amino)-2-oxoethyl]-N-methylbenzamide]
- EC50: 500 to 2000 nM

SMILES: O=C(CNC(=O)c1ccc(OC(F)(F)F)cn1)NC12CC(NC(=O)COc3ccc(Cl)c(F)c3)(C1)C2 [Compound 386, N-[2-({3-[2-(4-chloro-3-fluorophenoxy)acetamido]bicyclo[1.1.1]pentan-1-yl}amino)-2-oxoethyl]-5-(trifluoromethoxy)pyridine-2-carboxamide]
- EC50: > 2000 nM

SMILES: O=C(COc1ccc(F)c(C(F)(F)F)c1)NC12CCC(NC(=O)COc3ccc(C(F)(F)F)c(F)c3)(CC1)[C@@H](O)C2 [Compound 822, 2-[3-fluoro-4-(trifluoromethyl)phenoxy]-N-[(2S)-4-{2-[4-fluoro-3-(trifluoromethyl)phenoxy]acetamido}-2-hydroxybicyclo[2.2.2]octan-1-yl]acetamide]
- EC50: < 10 nM

SMILES: O=C(COc1ccc(Cl)c(F)c1)NC12CC(NC(=O)C3(c4ccc(Cl)cc4)CC3)(C1)C2 [Compound 668, N-{3-[2-(4-chloro-3-fluorophenoxy)acetamido]bicyclo[1.1.1]pentan-1-yl}-1-(4-chlorophenyl)cyclopropane-1-carboxamide]
- EC50: > 2000 nM

SMILES: O=C(COc1cnc(C(F)(F)F)nc1)NC12CCC(NC(=O)COc3ccc(Cl)c(F)c3)(CC1)[C@@H](O)C2 [Compound 627, 2-(4-chloro-3-fluorophenoxy)-N-[(2S)-2-hydroxy-4-(2-{[2-(trifluoromethyl)pyrimidin-5-yl]oxy}acetamido)bicyclo[2.2.2]octan-1-yl]acetamide]
- EC50: < 10 nM

SMILES: Cc1ccc(OCC(=O)NC23CCC(NC(=O)COc4ccc(C)c(C)c4)(CC2)[C@@H](O)C3)cc1C [Compound 443, N,N′-[(2S)-2-hydroxybicyclo[2.2.2]octane-1,4-diyl]bis[2-(3,4-dimethylphenoxy)acetamide]]
- EC50: < 10 nM

SMILES: CCCS(=O)(=O)c1ccc(OCC(=O)NC23CCC(NC(=O)COc4ccc(Cl)c(F)c4)(CC2)[C@@H](O)C3)cc1 [Compound 474, 2-(4-chloro-3-fluorophenoxy)-N-[(2S)-2-hydroxy-4-{2-[4-(propane-1-sulfonyl)phenoxy]acetamido}bicyclo[2.2.2]octan-1-yl]acetamide]
- EC50: > 2000 nM

SMILES: O=C(COc1ccc(Cl)c(F)c1)NC12CCC(OCc3ccc(Cl)cc3)(CC1)CC2O (centres unmarked) [Compound 565, 2-(4-chloro-3-fluorophenoxy)-N-{4-[(4-chlorophenyl)methoxy]-2-hydroxybicyclo[2.2.2]octan-1-yl}acetamide]
- EC50: 500 to 2000 nM

SMILES: COCC(Oc1ccc(Cl)c(F)c1)C(=O)NC12CC(NC(=O)COc3ccc(Cl)c(F)c3)(C1)C2 (centres unmarked) [Compound 421, 2-(4-chloro-3-fluorophenoxy)-N-{3-[2-(4-chloro-3-fluorophenoxy)acetamido]bicyclo[1.1.1]pentan-1-yl}-3-methoxypropanamide]
- EC50: 50 to 250 nM

SMILES: CC(=O)O[C@@H]1CC2(NC(=O)COc3ccc(Cl)c(F)c3)CCC1(NC(=O)COc1ccc(Cl)c(F)c1)CC2 (single isomer, unassigned) [Compound 449]
- EC50: 10 to 50 nM

SMILES: O=C(COc1ccc(Cl)c(F)c1)NC12CC(NC(=O)C(OCCO)c3ccc(F)cc3)(C1)C2 (centres unmarked) [Compound 779, N-{3-[2-(4-chloro-3-fluorophenoxy)acetamido]bicyclo[1.1.1]pentan-1-yl}-2-(4-fluorophenyl)-2-(2-hydroxyethoxy)acetamide]
- EC50: > 2000 nM

SMILES: O=C(COc1ccc(Cl)c(F)c1)NC12CCC(NC(=O)COc3cccc(C(F)(F)F)c3)(CC1)[C@@H](O)C2 [Compound 501, 2-(4-chloro-3-fluorophenoxy)-N-[(3S)-3-hydroxy-4-{2-[3-(trifluoromethyl)phenoxy]acetamido}bicyclo[2.2.2]octan-1-yl]acetamide]
- EC50: < 10 nM

SMILES: O=C(COc1ccc(Cl)c(F)c1)NC12CC(NC(=O)COc3cnc(C(F)(F)F)c(Cl)c3)(C1)C2 [Compound 222, 2-(4-chloro-3-fluorophenoxy)-N-[3-(2-{[5-chloro-6-(trifluoromethyl)pyridin-3-yl]oxy}acetamido)bicyclo[1.1.1]pentan-1-yl]acetamide]
- EC50: < 10 nM

SMILES: CS(=O)(=O)c1cc(OCC(=O)NC23CCC(NC(=O)COc4ccc(F)c(F)c4)(CC2)[C@@H](O)C3)ccc1F [Compound 818, 2-(3,4-difluorophenoxy)-N-[(2S)-4-{2-[4-fluoro-3-(methanesulfonyl)phenoxy]acetamido}-2-hydroxybicyclo[2.2.2]octan-1-yl]acetamide]
- EC50: 250 to 500 nM

SMILES: COc1cc(OCC(=O)NC23CCC(NC(=O)COc4ccc(Cl)c(F)c4)(CC2)[C@@H](O)C3)ccc1F [Compound 794, 2-(4-chloro-3-fluorophenoxy)-N-{(2S)-4-[2-(4-fluoro-3-methoxyphenoxy)acetamido]-2-hydroxybicyclo[2.2.2]octan-1-yl}acetamide]
- EC50: < 10 nM

SMILES: O=C(COc1ccc(Cl)c(Cl)c1)NC12CC(NC(=O)Cc3ccccn3)(C1)C2 [Compound 447, 2-(3,4-dichlorophenoxy)-N-{3-[2-(pyridin-2-yl)acetamido]bicyclo[1.1.1]pentan-1-yl}acetamide]
- EC50: > 2000 nM
